Experimental data taken from ChEMBL document CHEMBL1157033, “Developing a complete pharmacology for AMPA receptors: a perspective on subtype-selective ligands” (Bioorg Med Chem, 2010).

Experiments:
Glutamate receptor 3 [1] = target: T1, Glutamate receptor 3 (Homo sapiens, UniProt P42263); experiment: Activity at human recombinant GluA3 receptor flip isoform expressed in HEK293 cells assessed as effect on glutamate-induced calcium flux by Fluo-4/AM staining-based fluorescence assay; format: cell-based
Glutamate receptor 2 [2] = target: T2, Glutamate receptor 2 (Homo sapiens, UniProt P42262); experiment: Activity at human recombinant GluA2 receptor flop isoform expressed in HEK293 cells assessed as effect on glutamate-induced calcium flux by Fluo-4/AM staining-based fluorescence assay; format: cell-based
[3] = Activity at human recombinant GluA4 receptor flip isoform expressed in HEK293 cells assessed as effect on glutamate-induced calcium flux by Fluo-4/AM staining-based fluorescence assay; format: cell-based
Glutamate receptor 2 [4] = target: T2, Glutamate receptor 2; experiment: Activity at human recombinant GluA2 receptor flip isoform expressed in HEK293 cells assessed as effect on glutamate-induced calcium flux by Fluo-4/AM staining-based fluorescence assay; format: cell-based
Glutamate receptor 2 [5] = target: T2, Glutamate receptor 2; experiment: Activity at human recombinant GluA2 flip isoform expressed in HEK203 cells assessed as blocked of receptor desensitization
Glutamate receptor 1 [6] = target: T3, Glutamate receptor 1 (Homo sapiens, UniProt P42261); experiment: Activity at human recombinant GluA1 receptor flip isoform expressed in HEK293 cells assessed as effect on glutamate-induced calcium flux by Fluo-4/AM staining-based fluorescence assay; format: cell-based
Glutamate receptor 2 [7] = target: T2, Glutamate receptor 2; experiment: Activity at human recombinant GluA2 flop isoform expressed in HEK203 cells assessed as blocked of receptor desensitization
Glutamate receptor 4 = Glutamate receptor 4 (Homo sapiens, UniProt P48058); experiment: Inhibition of GluA4 receptor expressed in Xenopus oocytes assessed as inhibition of […] uM kainate-induced current by patch clamp electrophysiological assay; format: cell-based, Oocyte
[8] = target: T4, Glutamate receptor AMPA 1/2 (Homo sapiens, UniProt P42261+P42262); format: cell-based, Oocyte
Glutamate receptor 3 [9] = target: T1, Glutamate receptor 3; experiment: Inhibition of GluA3 receptor expressed in Xenopus oocytes assessed as inhibition of […] uM kainate-induced current by patch clamp electrophysiological assay; format: cell-based, Oocyte
[10] = Inhibition of recombinant GluA4 receptor flip isoform expressed in Xenopus oocytes assessed as inhibition of […] uM kainate-induced current by patch clamp electrophysiological assay; format: cell-based; conditions: Oocyte
[11] = target: T4, Glutamate receptor AMPA 1/2; experiment: Activity at recombinant GluA1A2 receptor flop isoform expressed in Xenopus oocytes assessed as effect of 100 uM kainate-induced current by patch clamp electrophysiological assay; format: cell-based, Oocyte
Glutamate receptor 1 [12] = target: T3, Glutamate receptor 1; experiment: Activity at recombinant GluA1 receptor flop isoform expressed in Xenopus oocytes assessed as effect of 100 uM kainate-induced current by patch clamp electrophysiological assay; format: cell-based, Oocyte
Glutamate receptor 1 [13] = target: T3, Glutamate receptor 1; format: cell-based, Oocyte
[14] = target: Glutamate receptor AMPA 1/2 (Rattus norvegicus, UniProt P19490+P19491); format: cell-based, Oocyte
Glutamate receptor 1 [15] = target: Glutamate receptor 1 (Rattus norvegicus, UniProt P19490); format: cell-based, Oocyte
Glutamate receptor 1 [16] = target: T3, Glutamate receptor 1; format: cell-based, Oocyte; remark: listed apart in the source
Glutamate receptor 3 [17] = target: T1, Glutamate receptor 3; experiment: Inhibition of recombinant GluA3 receptor flip isoform expressed in Xenopus oocytes assessed as inhibition of […] uM kainate-induced current by patch clamp electrophysiological assay; format: cell-based, Oocyte
Glutamate receptor 2 [18] = target: T2, Glutamate receptor 2; conditions: Oocyte; at 100 µM
Glutamate receptor 3 [19] = target: T1, Glutamate receptor 3; conditions: Oocyte; at 100 µM
[20] = target: T5, Glutamate receptor AMPA 1/2 (Homo sapiens) (UniProt P42262+P42261); conditions: Oocyte; at 100 µM
[21] = target: T6, Glutamate receptor AMPA 2/3 (Homo sapiens) (UniProt P42263+P42262); conditions: Oocyte; at 100 µM
Glutamate receptor 1 [22] = target: T3, Glutamate receptor 1; experiment: Inhibition of recombinant GluA1 receptor flip isoform expressed in Xenopus oocytes assessed as inhibition of […] uM glutamate-induced current; format: cell-based, Oocyte
[23] = target: T4, Glutamate receptor AMPA 1/2; experiment: Inhibition of recombinant GluA1A2 receptor flip isoform expressed in Xenopus oocytes assessed as inhibition of […] uM glutamate-induced current; format: cell-based, Oocyte
Glutamate receptor 1 [24] = target: T3, Glutamate receptor 1; conditions: Oocyte; at 100 µM
Glutamate receptor 1 [25] = target: T3, Glutamate receptor 1; experiment: Agonist activity at recombinant GluA1 receptor flip isoform expressed in Xenopus oocytes; format: functional, cell-based, Oocyte
[26] = target: T5, Glutamate receptor AMPA 1/2 (Homo sapiens); experiment: Activity at recombinant GluA1 receptor flip/GluA2 receptor flop isoform expressed in Xenopus oocytes assessed as potentiation of 10 uM AMPA-induced current at 100 uM relative to control; format: cell-based; conditions: Oocyte
[27] = Activity at recombinant GluA2A4 receptor flop isoform expressed in Xenopus oocytes assessed as effect on 300 uM glutamate-induced current; format: cell-based; conditions: Oocyte
Glutamate receptor 1 [28] = target: T3, Glutamate receptor 1; experiment: Activity at recombinant GluA1 receptor flip isoform expressed in Xenopus oocytes assessed as potentiation of 10 uM AMPA-induced current at 100 uM relative to control; format: cell-based; conditions: Oocyte
[29] = target: T5, Glutamate receptor AMPA 1/2 (Homo sapiens); experiment: Activity at recombinant GluA1A2 receptor flip isoform expressed in Xenopus oocytes assessed as potentiation of glutamate-induced current at 100 uM relative to control; format: cell-based; conditions: Oocyte
Glutamate receptor 1 [30] = target: T3, Glutamate receptor 1; experiment: Activity at recombinant GluA1 receptor flop isoform expressed in Xenopus oocytes co-expressing gamma2-TARP assessed as effect on 10 uM glutamate-induced current by voltage-clamp electrophysiological assay; format: cell-based, Oocyte
[31] = target: T6, Glutamate receptor AMPA 2/3 (Homo sapiens); experiment: Activity at recombinant GluA2 receptor flip/GluA3 receptor flop isoform expressed in Xenopus oocytes assessed as potentiation of 10 uM AMPA-induced current at 100 uM relative to control; format: cell-based; conditions: Oocyte
Glutamate receptor 1 [32] = target: T3, Glutamate receptor 1; experiment: Activity at recombinant GluA1 receptor flop isoform expressed in Xenopus oocytes assessed as potentiation of 10 uM AMPA-induced current at 100 uM relative to control; format: cell-based; conditions: Oocyte
[33] = target: T5, Glutamate receptor AMPA 1/2 (Homo sapiens); experiment: Activity at recombinant GluA1A2 receptor flop isoform expressed in Xenopus oocytes assessed as potentiation of 10 uM AMPA-induced current at 100 uM relative to control; format: cell-based; conditions: Oocyte
Glutamate receptor 1 [34] = target: T3, Glutamate receptor 1; experiment: Activity at recombinant GluA1 receptor flop isoform expressed in Xenopus oocytes assessed as potentiation of glutamate-induced current at 100 uM relative to control; format: cell-based; conditions: Oocyte
[35] = Activity at recombinant GluA2A4 receptor flip isoform expressed in Xenopus oocytes assessed as effect on 300 uM glutamate-induced current; format: cell-based; conditions: Oocyte
[36] = target: T5, Glutamate receptor AMPA 1/2 (Homo sapiens); experiment: Activity at recombinant GluA1 receptor flop/GluA2 receptor flip isoform expressed in Xenopus oocytes assessed as potentiation of 10 uM AMPA-induced current at 100 uM relative to control; format: cell-based; conditions: Oocyte
[37] = Activity at recombinant GluA4 receptor flip isoform expressed in Xenopus oocytes assessed as effect on 300 uM glutamate-induced current; format: cell-based; conditions: Oocyte
[38] = target: Glutamate receptor 4 (Rattus norvegicus) (UniProt P19493); experiment: Activity at recombinant GluA4 receptor flip isoform expressed in Xenopus oocytes assessed as potentiation of glutamate-induced current at 100 uM relative to control; conditions: Oocyte
Glutamate receptor 3 [39] = target: T1, Glutamate receptor 3; experiment: Activity at recombinant GluA3 receptor flip isoform expressed in Xenopus oocytes assessed as potentiation of glutamate-induced current at 100 uM relative to control; format: cell-based; conditions: Oocyte
[40] = target: T6, Glutamate receptor AMPA 2/3 (Homo sapiens); experiment: Activity at recombinant GluA2A3 receptor flop isoform expressed in Xenopus oocytes assessed as potentiation of 10 uM AMPA-induced current at 100 uM relative to control; format: cell-based; conditions: Oocyte
Glutamate receptor 3 [41] = target: T1, Glutamate receptor 3; experiment: Activity at recombinant GluA3 receptor flop isoform expressed in Xenopus oocytes assessed as potentiation of 10 uM AMPA-induced current at 100 uM relative to control; format: cell-based; conditions: Oocyte
Glutamate receptor 1 [42] = target: T3, Glutamate receptor 1; experiment: Activity at recombinant GluA1 receptor flip isoform expressed in Xenopus oocytes assessed as potentiation of glutamate-induced current at 100 uM relative to control; format: cell-based; conditions: Oocyte
[43] = target: T4, Glutamate receptor AMPA 1/2; experiment: Activity at recombinant GluA1A2 receptor flop isoform expressed in Xenopus oocytes assessed as effect on 300 uM glutamate-induced current; format: cell-based, Oocyte
[44] = target: T4, Glutamate receptor AMPA 1/2; experiment: Activity at recombinant GluA1A2 receptor flip isoform expressed in Xenopus oocytes assessed as effect on 300 uM glutamate-induced current; format: cell-based, Oocyte
[45] = target: T6, Glutamate receptor AMPA 2/3 (Homo sapiens); experiment: Activity at recombinant GluA2 receptor flop/GluA3 receptor flip isoform expressed in Xenopus oocytes assessed as potentiation of 10 uM AMPA-induced current at 100 uM relative to control; format: cell-based; conditions: Oocyte
[46] = target: T5, Glutamate receptor AMPA 1/2 (Homo sapiens); experiment: Activity at recombinant GluA1A2 receptor flop isoform expressed in Xenopus oocytes assessed as potentiation of glutamate-induced current at 100 uM relative to control; format: cell-based; conditions: Oocyte
Glutamate receptor 1 [47] = target: T3, Glutamate receptor 1; experiment: Activity at recombinant GluA1 receptor flip isoform expressed in Xenopus oocytes co-expressing gamma2-TARP assessed as effect on 10 uM glutamate-induced current by voltage-clamp electrophysiological assay; format: cell-based, Oocyte
Glutamate receptor 3 [48] = target: T1, Glutamate receptor 3; experiment: Activity at recombinant GluA3 receptor flip isoform expressed in Xenopus oocytes assessed as potentiation of 10 uM AMPA-induced current at 100 uM relative to control; format: cell-based; conditions: Oocyte
Glutamate receptor 2 [49] = target: T2, Glutamate receptor 2; experiment: Activity at recombinant GluA2 receptor flip isoform expressed in Xenopus oocytes co-expressing gamma2-TARP assessed as effect on glutamate/trichloromethiazide-induced current; format: cell-based, Oocyte
Glutamate receptor 1 [50] = target: T3, Glutamate receptor 1; experiment: Activity at recombinant GluA1 receptor flip isoform expressed in Xenopus oocytes co-expressing gamma2-TARP assessed as effect on glutamate/trichloromethiazide-induced current; format: cell-based, Oocyte
Oocyte = conditions: at 0.5 µM
Glutamate receptor 3 [51] = target: T1, Glutamate receptor 3; experiment: Inhibition of recombinant GluA3 receptor flop isoform expressed in Xenopus oocytes assessed as inhibition of […] uM kainate-induced current by patch clamp electrophysiological assay; format: cell-based, Oocyte
Glutamate receptor 3 [52] = target: T1, Glutamate receptor 3; conditions: Oocyte; at 0.5 µM
Glutamate receptor 1 [53] = target: T3, Glutamate receptor 1; format: cell-based, Oocyte; remark: listed apart in the source

T4 sequence (P42262 whole entry): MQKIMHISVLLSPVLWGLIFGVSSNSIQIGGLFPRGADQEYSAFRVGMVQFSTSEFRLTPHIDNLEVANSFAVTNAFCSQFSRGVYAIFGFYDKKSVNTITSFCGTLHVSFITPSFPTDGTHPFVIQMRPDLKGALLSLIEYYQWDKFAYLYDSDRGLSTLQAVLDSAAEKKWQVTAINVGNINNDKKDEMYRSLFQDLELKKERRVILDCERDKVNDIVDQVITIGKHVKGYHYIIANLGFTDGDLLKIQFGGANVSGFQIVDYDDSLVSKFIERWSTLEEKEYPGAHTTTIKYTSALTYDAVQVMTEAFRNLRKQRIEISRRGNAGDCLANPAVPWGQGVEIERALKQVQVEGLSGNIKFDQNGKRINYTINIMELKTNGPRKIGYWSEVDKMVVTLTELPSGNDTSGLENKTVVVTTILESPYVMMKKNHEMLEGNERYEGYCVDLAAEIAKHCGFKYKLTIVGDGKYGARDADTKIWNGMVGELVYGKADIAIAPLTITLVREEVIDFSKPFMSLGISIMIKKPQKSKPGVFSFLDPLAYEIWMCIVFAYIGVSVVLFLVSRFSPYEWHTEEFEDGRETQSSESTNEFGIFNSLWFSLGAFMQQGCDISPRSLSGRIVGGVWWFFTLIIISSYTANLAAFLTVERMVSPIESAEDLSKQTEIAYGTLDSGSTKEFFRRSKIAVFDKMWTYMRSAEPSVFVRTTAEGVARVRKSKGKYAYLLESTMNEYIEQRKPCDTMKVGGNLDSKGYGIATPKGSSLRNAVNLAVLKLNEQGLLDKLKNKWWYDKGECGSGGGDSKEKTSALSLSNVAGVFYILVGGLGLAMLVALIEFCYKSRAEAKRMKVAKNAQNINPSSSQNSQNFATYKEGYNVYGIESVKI
T4 sequence (P42261 whole entry): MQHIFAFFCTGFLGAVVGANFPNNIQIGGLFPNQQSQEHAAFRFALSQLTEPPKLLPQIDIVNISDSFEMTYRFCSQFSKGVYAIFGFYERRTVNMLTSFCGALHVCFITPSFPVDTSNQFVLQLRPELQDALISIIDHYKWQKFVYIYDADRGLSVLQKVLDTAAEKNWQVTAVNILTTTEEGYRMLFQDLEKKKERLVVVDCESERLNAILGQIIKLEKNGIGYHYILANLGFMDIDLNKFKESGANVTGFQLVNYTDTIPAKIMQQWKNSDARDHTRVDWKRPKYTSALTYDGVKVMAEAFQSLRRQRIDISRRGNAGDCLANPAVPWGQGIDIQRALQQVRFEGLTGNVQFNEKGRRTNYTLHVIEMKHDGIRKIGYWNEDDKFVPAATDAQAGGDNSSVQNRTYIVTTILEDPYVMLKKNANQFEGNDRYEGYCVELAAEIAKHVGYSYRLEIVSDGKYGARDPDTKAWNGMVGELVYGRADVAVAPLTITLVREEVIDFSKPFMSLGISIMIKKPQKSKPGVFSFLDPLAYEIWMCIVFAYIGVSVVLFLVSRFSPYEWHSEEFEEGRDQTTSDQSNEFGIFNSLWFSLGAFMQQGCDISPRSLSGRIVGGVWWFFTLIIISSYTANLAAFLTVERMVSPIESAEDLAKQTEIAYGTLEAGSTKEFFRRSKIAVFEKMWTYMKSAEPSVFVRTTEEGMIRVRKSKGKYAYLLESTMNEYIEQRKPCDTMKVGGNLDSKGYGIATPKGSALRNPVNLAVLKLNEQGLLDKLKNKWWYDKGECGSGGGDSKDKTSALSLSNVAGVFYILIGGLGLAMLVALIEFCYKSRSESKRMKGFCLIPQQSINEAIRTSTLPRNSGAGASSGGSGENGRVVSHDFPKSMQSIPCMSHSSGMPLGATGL
T2 sequence (P42262 whole entry, canonical isoform): as the sequence (P42262 whole entry) above
T1 sequence (P42263 whole entry, canonical isoform): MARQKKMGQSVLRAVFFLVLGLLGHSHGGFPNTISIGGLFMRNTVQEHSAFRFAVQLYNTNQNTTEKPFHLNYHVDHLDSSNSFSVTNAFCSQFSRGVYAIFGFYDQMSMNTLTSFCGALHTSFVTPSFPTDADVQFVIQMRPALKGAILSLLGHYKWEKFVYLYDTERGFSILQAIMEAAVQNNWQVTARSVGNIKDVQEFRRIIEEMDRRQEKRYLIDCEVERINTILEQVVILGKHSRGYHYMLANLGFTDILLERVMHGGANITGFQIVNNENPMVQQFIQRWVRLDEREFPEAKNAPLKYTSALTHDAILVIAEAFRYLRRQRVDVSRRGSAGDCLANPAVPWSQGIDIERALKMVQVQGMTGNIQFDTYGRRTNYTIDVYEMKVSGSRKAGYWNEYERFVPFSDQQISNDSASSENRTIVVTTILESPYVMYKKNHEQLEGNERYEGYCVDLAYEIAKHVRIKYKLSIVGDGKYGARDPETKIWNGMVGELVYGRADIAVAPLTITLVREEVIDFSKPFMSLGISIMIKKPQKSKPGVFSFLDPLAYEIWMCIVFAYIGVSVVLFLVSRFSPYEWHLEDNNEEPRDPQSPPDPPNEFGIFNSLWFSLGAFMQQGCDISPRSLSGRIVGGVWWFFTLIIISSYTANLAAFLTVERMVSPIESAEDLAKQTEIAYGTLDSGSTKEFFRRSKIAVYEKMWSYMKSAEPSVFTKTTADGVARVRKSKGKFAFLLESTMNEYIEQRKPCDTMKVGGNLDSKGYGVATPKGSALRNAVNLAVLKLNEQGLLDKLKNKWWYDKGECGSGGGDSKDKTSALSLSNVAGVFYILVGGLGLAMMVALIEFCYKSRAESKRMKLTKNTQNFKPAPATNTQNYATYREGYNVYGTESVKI
T3 sequence (P42261 whole entry, canonical isoform): as the sequence (P42261 whole entry) above
Glutamate receptor AMPA 1/2 (Rattus norvegicus, UniProt P19490+P19491), sequence (P19491 whole entry): as the sequence (P42262 whole entry) above, with M191T, T291A, R764G, A852P counted along it
Glutamate receptor AMPA 1/2 (Rattus norvegicus, UniProt P19490+P19491), sequence (P19490 whole entry): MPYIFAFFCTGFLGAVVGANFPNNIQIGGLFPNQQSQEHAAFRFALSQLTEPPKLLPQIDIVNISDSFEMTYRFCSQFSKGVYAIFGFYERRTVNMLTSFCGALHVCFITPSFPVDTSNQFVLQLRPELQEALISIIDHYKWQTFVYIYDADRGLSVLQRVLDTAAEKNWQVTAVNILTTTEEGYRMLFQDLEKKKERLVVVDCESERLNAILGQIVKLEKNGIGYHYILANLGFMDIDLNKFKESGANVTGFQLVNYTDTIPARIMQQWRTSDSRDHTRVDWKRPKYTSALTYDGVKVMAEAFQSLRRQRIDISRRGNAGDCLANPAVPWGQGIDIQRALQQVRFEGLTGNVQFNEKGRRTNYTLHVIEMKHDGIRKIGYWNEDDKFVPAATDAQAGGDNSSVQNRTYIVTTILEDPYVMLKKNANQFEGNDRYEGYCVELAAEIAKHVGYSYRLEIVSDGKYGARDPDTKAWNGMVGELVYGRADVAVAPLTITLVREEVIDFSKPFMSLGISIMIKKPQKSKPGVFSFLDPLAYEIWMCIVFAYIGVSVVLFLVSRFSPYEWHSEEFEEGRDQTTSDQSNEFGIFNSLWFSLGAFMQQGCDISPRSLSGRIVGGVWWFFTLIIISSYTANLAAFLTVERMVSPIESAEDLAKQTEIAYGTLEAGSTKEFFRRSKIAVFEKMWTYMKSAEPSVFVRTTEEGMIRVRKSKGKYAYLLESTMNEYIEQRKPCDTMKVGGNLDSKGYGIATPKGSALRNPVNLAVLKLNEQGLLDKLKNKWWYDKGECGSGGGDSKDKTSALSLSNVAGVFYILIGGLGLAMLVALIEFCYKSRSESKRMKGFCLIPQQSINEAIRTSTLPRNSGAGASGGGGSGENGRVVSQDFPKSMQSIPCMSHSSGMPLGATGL
Glutamate receptor 4, sequence (P48058 whole entry): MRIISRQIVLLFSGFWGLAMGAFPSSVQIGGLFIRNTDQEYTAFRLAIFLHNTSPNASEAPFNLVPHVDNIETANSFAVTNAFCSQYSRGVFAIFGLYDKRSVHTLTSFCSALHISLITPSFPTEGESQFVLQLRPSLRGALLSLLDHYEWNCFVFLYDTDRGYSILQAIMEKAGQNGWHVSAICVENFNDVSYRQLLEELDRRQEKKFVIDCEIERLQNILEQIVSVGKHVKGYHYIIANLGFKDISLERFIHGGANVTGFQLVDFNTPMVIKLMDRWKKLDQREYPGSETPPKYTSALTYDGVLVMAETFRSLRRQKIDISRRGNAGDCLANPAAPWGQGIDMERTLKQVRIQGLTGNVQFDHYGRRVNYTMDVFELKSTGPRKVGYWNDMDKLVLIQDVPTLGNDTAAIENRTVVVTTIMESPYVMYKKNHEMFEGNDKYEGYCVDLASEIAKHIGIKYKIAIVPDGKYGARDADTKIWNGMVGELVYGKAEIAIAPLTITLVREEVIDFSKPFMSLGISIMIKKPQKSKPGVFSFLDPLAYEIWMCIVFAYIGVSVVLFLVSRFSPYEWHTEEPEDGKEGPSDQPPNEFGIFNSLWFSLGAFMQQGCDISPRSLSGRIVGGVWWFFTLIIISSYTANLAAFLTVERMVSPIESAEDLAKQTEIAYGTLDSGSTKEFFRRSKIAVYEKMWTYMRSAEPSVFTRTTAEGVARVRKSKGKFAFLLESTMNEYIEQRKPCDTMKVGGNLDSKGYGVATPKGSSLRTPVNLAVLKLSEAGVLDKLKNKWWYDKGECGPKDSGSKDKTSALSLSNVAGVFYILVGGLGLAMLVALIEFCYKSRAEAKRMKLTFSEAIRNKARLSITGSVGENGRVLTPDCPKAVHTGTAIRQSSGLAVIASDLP
Glutamate receptor 1 (Rattus norvegicus, UniProt P19490), sequence (P19490 whole entry): as the sequence (P19490 whole entry) above

CC(CNS(=O)(=O)C(C)C)C1CCC(c2ccc(C#N)cc2)CC1 (stereo not given)
EC50 (Glutamate receptor 3 [1]): 1.66 µM
EC50 (Glutamate receptor 2 [2]): 1440 nM
EC50 [3]: 210 nM
EC50 (Glutamate receptor 2 [4]): 150 nM
EC50 (Glutamate receptor 2 [5]): 15 µM
EC50 (Glutamate receptor 1 [6]): 5.65 µM
EC50 (Glutamate receptor 2 [7]): 1440 nM

N=C(N)NCCC[C@H](N)C(=O)NCCCNCCCNCCCCCNC(=O)[C@H](CC(N)=O)NC(=O)Cc1ccc(O)cc1O
IC50 (Glutamate receptor 4): 430 nM
IC50 [8]: 5.5 µM
IC50 (Glutamate receptor 3 [9]): 230 nM
IC50 [10]: 430 nM
IC50 [11]: 300 µM
IC50 (Glutamate receptor 1 [12]): 3.4 µM
IC50 (Glutamate receptor 1 [13]): 350 nM
IC50 [14]: 300 µM
IC50 (Glutamate receptor 1 [15]): 3.4 µM
IC50 (Glutamate receptor 1 [16]): 350 nM
IC50 (Glutamate receptor 3 [17]): 230 nM

CCCC(=O)N[C@@H](Cc1ccc(O)cc1)C(=O)NCCCCCCCNCCCCN
inhibition (Glutamate receptor 2 [18]): 2.1%
inhibition (Glutamate receptor 3 [19]): 100%
inhibition [20]: 84.3%
inhibition [21]: 2.6%
Ki (Glutamate receptor 1 [22]): 168 nM
Ki [23]: 1600 nM
inhibition (Glutamate receptor 1 [24]): 100%

NS(=O)(=O)c1cc2c(cc1Cl)NC(C1CC3C=CC1C3)NS2(=O)=O (stereo not given) [CYCLOTHIAZIDE]
EC50 (Glutamate receptor 3 [1]): 13.7 µM
EC50 (Glutamate receptor 1 [25]): 1000 nM
fold change (FC) [26]: 19.9
EC50 [27]: > 91 µM
fold change (FC) (Glutamate receptor 1 [28]): 5.31
EC50 (Glutamate receptor 2 [2]): > 100000 nM
EC50 [3]: 3910 nM
fold change (FC) [29]: 137
EC50 (Glutamate receptor 1 [30]): 10 µM
fold change (FC) [31]: 7.18
fold change (FC) (Glutamate receptor 1 [32]): 1.34
fold change (FC) [33]: 3.53
fold change (FC) (Glutamate receptor 1 [34]): 22
EC50 [35]: 5 µM
fold change (FC) [36]: 11.6
EC50 [37]: 5.9 µM
fold change (FC) [38]: 171
fold change (FC) (Glutamate receptor 3 [39]): 69
fold change (FC) [40]: 10.5
fold change (FC) (Glutamate receptor 3 [41]): 5.59
EC50 (Glutamate receptor 2 [4]): 2240 nM
fold change (FC) (Glutamate receptor 1 [42]): 103
EC50 [43]: > 76 µM
EC50 [44]: 6.6 µM
fold change (FC) [45]: 6.83
EC50 (Glutamate receptor 1 [6]): 19.8 µM
fold change (FC) [46]: 61
EC50 (Glutamate receptor 1 [47]): 2000 nM
fold change (FC) (Glutamate receptor 3 [48]): 3.59

CNC(=O)N1N=C(c2ccc(N)cc2)c2cc3c(cc2CC1C)OCO3 (stereo not given) [GYKI-53655]
EC50 (Glutamate receptor 2 [49]): 100 µM
EC50 (Glutamate receptor 1 [50]): 28 µM

NCCCNCCCCNCCC(=O)NCCCCCNC(=O)[C@H](CC(N)=O)NC(=O)Cc1ccc(O)cc1O [JORO SPIDER TOXIN 3]
inhibition (Oocyte): 82%
IC50 (Glutamate receptor 3 [51]): 30 nM
inhibition (Glutamate receptor 3 [52]): 96%
IC50 (Glutamate receptor 1 [53]): 40 nM
